From ChEMBL document CHEMBL4145592, “Synthesis of Phosphatidylserine and Its Stereoisomers: Their Role in Activation of Blood Coagulation” (ACS Med Chem Lett, 2018) come the findings set out here.

The target in test [1] is T1, Coagulation factor VII/tissue factor (Homo sapiens) (UniProt P08709+P13726). Briefly: Activation of full length recombinant human His-tagged tissue factor expressed in Escherichia coli BL21(DE3)/recombinant factor 7a (unknown origin) assessed as induction of coagulant factor-10a production using S-2765 as substrate measured for 2 mins in presence of phosphatidylcholine by colorimetric method relative to phosphatidylcholine alone.

For test [2], the target named is T1, Coagulation factor VII/tissue factor (Homo sapiens). Briefly: Activation of full length recombinant human His-tagged tissue factor expressed in Escherichia coli BL21(DE3)/recombinant factor 7a (unknown origin) assessed as induction of coagulant factor-10a production using S-2765 as substrate measured for 2 mins in presence of phosphatidylcholine by colorimetric method.

Each structure is given as a SMILES string. Active and inactive are the calls of the source. The rule behind the calls is not given here.

In the case of `CCCCCCCC/C=C\CCCCCCCC(=O)OC[C@@H](COP(=O)(O)OC[C@H](N)C(=O)O)OC(=O)CCCCCCC/C=C\CCCCCCCC`, the fold change (FC) in test [1] is 2. Take `CCCCCCCC/C=C\CCCCCCCC(=O)OC[C@@H](COP(=O)(O)OC[C@@H](N)C(=O)O)OC(=O)CCCCCCC/C=C\CCCCCCCC`: in test [2], the outcome was inactive. As for `CCCCCCCC/C=C\CCCCCCCC(=O)OC[C@H](COP(=O)(O)OC[C@H](N)C(=O)O)OC(=O)CCCCCCC/C=C\CCCCCCCC`, in test [1], the fold change (FC) is 6.

As to `CCCCCCCC/C=C\CCCCCCCC(=O)OC[C@H](COP(=O)(O)OC[C@@H](N)C(=O)O)OC(=O)CCCCCCC/C=C\CCCCCCCC`, the outcome in test [2] was Active.
